Data taken from patent US20070249556A1, “METHOD OF TREATING INFLAMMATION” (priority 2006, published 2007).

Assays:
neutrophils [1] = assay: LPS model of acute pulmonary inflammation in rat; format: in vivo
Source text: The administration of lipopolysaccharides (LPS) from gram-negative bacteria cell walls to the lungs of rats results in a rapid increase in the total number of leukocytes in the lumen of the lungs. The increase of neutrophils in the lung in the LPS model represents the conditions present a patients with chronic respiratory diseases such as cystic fibrosis, chronic bronchitis, emphysema, and certain subtypes of asthma. The LPS model of acute pulmonary inflammation is a well-established model for testing compounds having potential activities in treating inflammatory airway diseases.
Compound 11 (35 mg/kg) or vehicle (0.5% aqueous methylcellulose) was orally administered to groups of rats 15 minutes prior to pulmonary aerosolized LPS (˜2 micrograms/rat) or placebo (air) exposure (20 minute exposure) and 2.5 and 5 hours following the initial oral administration. Eight hours after pulmonary administration of aerosolized LPS, the lungs were lavaged to obtain bronchoalveolar lavage fluid, containing accumulated leukocytes.

neutrophils [2] = assay: Inhibition of neutrophil chemotaxis (Boyden type chemotaxis chamber); format: cell-based, human; conditions: isolated neutrophils, chemoattractant in lower chamber, one to three hours at 37 C, effective concentrations of inhibitor
Method: Neutrophils were isolated from peripheral blood donated by healthy volunteers. Twenty milliliters of whole blood containing ACD ([…]) as an anticoagulant was layered over twenty milliliters Ficoll-Pacque Plus (Stem Cell Technologies, Vancouver, BC) and centrifuged for 45 minutes at 1500 rpm. Following centrifugation, the red blood cell layer (also containing the granulocytes) at the bottom of the tube was retained in the centrifugation tube while the top layers were removed. The red blood cell and granulocytes were combined with an equal volume of 3% Dextran 500 (Amersham Biosciences, Uppsala, Sweden) and mixed gently. The red blood cells were allowed to sediment for 30 minutes. […] The cells were resuspended in Hank's Balanced Salt Solution (HBSS, Invitrogen, Grand Island, N.Y.), and counted on a hemacytometer. […] Cell viability was determined through trypan blue exclusion and was greater than 95%. […]
Chemoattractant compounds (e.g. fMLP) are prepared as 20 mM stock solutions and dissolved in either DMSO or water. […] The number of migrated cells is determined by microscopy and counting the number of cells per high powered field.
Inhibitors of neutrophil chemotaxis are identified using a Boyden type chemotaxis chamber. […] The number of migrated cells is determined by microscopy and counting the number of cells per high powered field.

## CCNC(=O)Nc1ncnc2c1ncn2C1OC(CCC(=O)O)C2OC(/C=C/c3ccccc3)OC21 (stereo not drawn) [Compound 11, trans-3-{6-[6-(3-ethyl-ureido)-purin-9-yl]-2-styryl-tetrahydro-furo[3,4-d][1,3]dioxol-4-yl}-propionic acid]
Neutrophils [1]; rats treated with compound compared with animals not receiving it, acute model of pulmonary inflammation
  number of neutrophils found in the lumen of the lungs (FIG. 1): significant reduction
Neutrophils [1]; rats, 35 mg/kg oral 15 min prior to aerosolized LPS and 2.5 and 5 hours after first dose, lavage 8 hours after LPS, vs vehicle and LPS, p<0.001
  decrease in the number of neutrophils recovered in the lavage fluid: 56.6%
Neutrophils [2]
  number of migrated neutrophils: significant decrease
